Patent US20040029930A1, “Fungicidal mixtures based on amide compounds” (priority 2000, published 2004)

Tested on: Plasmopara viticola
Assay: Activity against Peronospora in grape vines caused by Plasmopara viticola (protective spray, potted vines)
Format: in vivo
Settings: individual active ingredient, vine cultivar Müller-Thurgau
Experimental: The active ingredients, separately or together, are formulated as a 10% emulsion in a mixture of 63% by weight of cyclohexanone and 27% by weight of emulsifier, and diluted with water to the desired concentration.
Evaluation is carried out by determining the infected leaf areas in percent. These percentages are converted into efficacies. The efficacy (W) is calculated as follows using Abbot's formula: […]
α corresponds to the fungal infection of the treated plants in % and β corresponds to the fungal infection of the untreated (control) plants in % An efficacy of 0 means that the infection level of the treated plants corresponds to that of the untreated control plants; an efficacy of 100 means that the treated plants were not infected.
The expected efficacies of the mixtures of the active ingredients were determined using Colby's formula [R. S. Colby, Weeds 15, 20-22 (1967)] and compared with the observed efficacies.
E=x+y−x·y/100 Colby's formula
E expected efficacy, expressed in % of the untreated control, when using the mixture of the active ingredients A and B at the concentrations a and b […]
X efficacy, expressed in % of the untreated control, when using active ingredient A at a concentration of a […]
Y efficacy, expressed in % of the untreated control, when using active ingredient B at a concentration of b […]
Activity Against Peronospora in Grape Vines Caused by Plasmmopara viticola […]
Leaves of potted vines of the cultivar “Müller-Thurgau” were sprayed to runoff point with an aqueous preparation of active ingredient which had been prepared using a stock solution comprising 10% of active ingredient, 85% of cyclohexanone and 5% of emulsifier. The next day, the undersides of the leaves were inoculated with an aqueous zoospore suspension of Plasmopara viticola. The vines were then placed firstly for 48 hours in a water-vapor-saturated chamber at 24° C. and then for 5 days in a greenhouse at 20-30° C. After this period of time, the plants were again placed in a moist chamber for 16 hours to accelerate the sporangiophore eruption. The extent to which the undersides of the leaves had been infected was then determined visually.

Which results are given for `Cc1ccc(-c2c(Cl)nc(C#N)n2S(=O)(=O)N(C)C)cc1` [cyazofamid]?
Efficacy in % of the untreated control (1 ppm in the spray liquor): 73%; Efficacy in % of the untreated control (4 ppm in the spray liquor): 79%; Efficacy in % of the untreated control (8 ppm in the spray liquor): 84%; Efficacy in % of the untreated control (16 ppm in the spray liquor): 89%
